Measured values reported in patent US20240400553A1, “AMINE BASED MATRIPTASE 2 INHIBITORS AND USES THEREOF” (Disc Medicine, Inc., priority 2023, published 2024).

Each compound was assayed against T1, Human Recombinant Matriptase 2 (Homo sapiens, UniProt Q8IU80) (assay: Matriptase 2 inhibition, fluorescence based assay (Method I)). Conditions: Table A; Ki of Matriptase-2, class symbols; read-out: Mat-2 Ki.
T1 construct: made in house
T1 sequence (Q8IU80 1-811): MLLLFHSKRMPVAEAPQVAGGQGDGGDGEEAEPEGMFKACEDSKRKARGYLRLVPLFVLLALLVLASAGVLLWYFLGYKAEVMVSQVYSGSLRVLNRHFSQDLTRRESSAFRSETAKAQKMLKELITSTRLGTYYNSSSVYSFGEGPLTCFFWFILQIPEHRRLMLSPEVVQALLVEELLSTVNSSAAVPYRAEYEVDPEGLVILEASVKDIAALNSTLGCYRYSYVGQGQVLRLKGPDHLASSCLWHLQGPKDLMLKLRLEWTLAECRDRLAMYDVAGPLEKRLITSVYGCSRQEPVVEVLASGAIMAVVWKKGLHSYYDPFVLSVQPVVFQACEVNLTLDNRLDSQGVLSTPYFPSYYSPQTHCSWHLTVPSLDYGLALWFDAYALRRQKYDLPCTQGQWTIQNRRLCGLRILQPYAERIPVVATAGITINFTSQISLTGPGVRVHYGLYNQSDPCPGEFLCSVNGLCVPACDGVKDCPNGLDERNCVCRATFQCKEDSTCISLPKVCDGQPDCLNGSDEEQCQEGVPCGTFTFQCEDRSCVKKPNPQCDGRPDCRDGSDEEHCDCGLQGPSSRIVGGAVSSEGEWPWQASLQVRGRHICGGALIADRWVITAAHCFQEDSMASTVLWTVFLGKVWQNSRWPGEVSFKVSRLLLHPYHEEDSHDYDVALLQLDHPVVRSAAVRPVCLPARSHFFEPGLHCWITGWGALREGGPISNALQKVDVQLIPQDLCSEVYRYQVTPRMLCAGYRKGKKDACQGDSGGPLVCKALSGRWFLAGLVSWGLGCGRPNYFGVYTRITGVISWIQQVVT
Assay type: biochemical
Description: • Method I: Test compounds were evaluated for their potential to inhibit Human Recombinant Matriptase 2 (in-house) using fluorescence based assay. The concentration of Recombinant Matriptase 2 and the substrate used in the assay was: 3.5 nM (In-house Matriptase 2) and 62 μM (Boc-Gln-Ala-Arg-7-amido-4-methyl coumarin hydrobromide −Cat log: I-1550 from Bachem) respectively. The assay buffer used was 50 mM TRIS pH 7.5, 150 mM NaCl, 0.01% Gelatin TCL059 Himedia). The assay was performed using 384 well black flat bottom plate from grenier (Cat log: 781076) at 25° C. The enzyme and compound were preincubated for 30 mins, the plate was read at 60 mins after substrate addition at wavelength Ex: 360/Em: 480 nm. The final assay volume was 20 μl. A stock solution of compounds was initially prepared in DMSO and appropriate dilutions were made and IC50 was determined for all the compounds (final DMSO conc in the assay was 1%). All the measurements were carried out using the Spectramax M5, Molecular devices.
To determine Ki values, dose response curves were generated by plotting percentage inhibition as a function of inhibitor concentration and the data was fitted to sigmoidal non-linear regression equation (variable slope) using Graph Pad prism software V8.

Ki | SMILES
500 to 3000 nM | CN1CCCC1COC(=O)Nc1cc(Cn2c(C(=O)O)cc3ccc(CN)cc32)c2ccccc2c1 (racemic) [Compound 398, 6-(aminomethyl)-1-{[3-({[(1-methylpyrrolidin-2-yl)methoxy]carbon-yl}amino]naphthalen-1-yl]methyl}-1H-indole-2-carboxylic acid]

Same assay, conditions: Table A; Ki of Matriptase-2; read-out: Mat-2 Ki

Ki | SMILES
≤ 100 nM | NCc1ccc2cc(C(=O)O)n(Cc3cc(NS(=O)(=O)CC[C@@H]4CCCN4)cc4ccccc34)c2n1 [Compound 1, (S)-6-(aminomethyl)-1-((3-((2-(pyrrolidin-2-yl)ethyl)sulfonamido)naphthalen-1-yl)methyl)-1H-pyrrolo[2,3-b]pyridine-2-carboxylic acid]

Same assay, conditions: Table A; Ki of Matriptase-2 given as class symbols; read-out: Mat-2 Ki

Ki | SMILES
500 to 3000 nM | CC(C)[C@H]1CCN(C(=O)Nc2cc(Cn3c(C(=O)O)cc4ccc(CN)nc43)c3ccccc3c2)C1 (racemic) [Compound 303, rac-6-(aminomethyl)-1-[(3-{[(3R)-3-(propan-2-yl)pyrrolidine-1-carbon-yl]amino}naphthalen-1-yl)methyl]-1H-pyrrolo-[2,3-b]pyridine-2-car-boxylic acid]
500 to 3000 nM | CC[C@H]1CCCCN1C(=O)Nc1cc(Cn2c(C(=O)O)cc3ccc(CN)nc32)c2ccccc2c1 (racemic) [Compound 306, rac-6-(aminomethyl)-1-[(3-{[(2R)-2-ethylpiper-idine-1-carbonyl]amino}-naphthalen-1-yl)methyl]-1H-pyrrolo[2,3-b]pyr-idine-2-carboxylic acid]
100 to 500 nM | CN1CCC[C@@H]1COC(=O)Nc1cc(Cn2c(C(=O)O)cc3ccc(CN)nc32)c2ccccc2c1 (racemic) [Compound 335, 6-(aminomethyl)-1-{[3-({[(1-methylpyrrolidin-2-yl)methoxy]carbon-yl}amino)naphthalen-1-yl]methyl}-1H-pyrrolo-[2,3-b]pyridine-2-car-boxylic acid]
100 to 500 nM | CN1CCO[C@@H](COC(=O)Nc2cc(Cn3c(C(=O)O)cc4ccc(CN)nc43)c3ccccc3c2)C1 (racemic) [Compound 337, 6-(aminomethyl)-1-{[3-({[(4-methylmorpholin-2-yl)methoxy]carbon-yl}amino)naphthalen-1-yl]methyl}-1H-pyrrolo-[2,3-b]pyridine-2-car-boxylic acid]
500 to 3000 nM | C[C@@H](CN1CCCCC1)OC(=O)Nc1cc(Cn2c(C(=O)O)cc3ccc(CN)nc32)c2ccccc2c1 (racemic) [Compound 339, rac-6-(aminomethyl)-1-({3-[({[(2R)-1-(piperidin-1-yl)propan-2-yl]oxy}-carbonyl)amino]naph-thalen-1-yl}methyl)-1H-pyrrolo[2,3-b]pyridine-2-carboxylic acid]
500 to 3000 nM | NCc1ccc2cc(C(=O)O)n(Cc3cc(NC(=O)OC[C@H]4CCN4Cc4ccccc4)cc4ccccc34)c2n1 (racemic) [Compound 340, rac-6-(aminomethyl)-1-({3-[({[(2R)-1-benzyl-azetidin-2-yl]methoxy}-carbonyl)amino]naph-thalen-1-yl}methyl)-1H-pyrrolo[2,3-b]pyridine-2-carboxylic acid]
500 to 3000 nM | CN1CCC(COC(=O)c2cc3ccc(CN)nc3n2Cc2cc(N[S@@+]([O-])Cc3ccccc3)cc3ccccc23)CC1 (racemic) [Compound 367]
≤ 100 nM | CC(c1ccccc1)S(=O)(=O)Nc1cc(Cn2c(C(=O)OCC3CCN(C)CC3)cc3ccc(CN)cc32)c2ccccc2c1 (racemic) [Compound 380, (1-methylpiperidin-4-yl)-methyl 6-(aminomethyl)-1-{[3-(1-phenylethane-sulfonamido)naphthalen-1-yl]methyl}-1H-indole-2-carboxylate]
≤ 100 nM | CN1CCCC(COC(=O)c2cc3ccc(CN)cc3n2Cc2cc(NS(=O)(=O)Cc3ccccc3)cc3ccccc23)C1 (racemic) [Compound 382, (1-methylpiperidin-3-yl)-methyl 6-(aminomethyl)-1-{[3-(phenylmethane-sulfonamido)naphthalen-1-yl]methyl}-1H-indole-2-carboxylate]
100 to 500 nM | NCc1ccc2cc(C(=O)O)n(Cc3cc(NS(=O)(=O)C[C@H]4CNCCO4)cc4ccccc34)c2c1 (racemic) [Compound 391, 6-(aminomethyl)-1-({3-[(morpholin-2-l)methane-sulfonamido]naphthalen-1-yl}methyl)-1H-indole-2-carboxylic acid]

Same assay, conditions: Table B; Human Recombinant Matriptase 2, 3.5 nM enzyme, 62 μM substrate, 30 mins preincubation; read-out: Mean Ki

Ki | SMILES
100 to 500 nM | CN1CCC(CCOC(=O)c2cc3ccc(CN)nc3n2Cc2cc(NS(=O)(=O)Cc3ccccc3)cc3c2CCCC3)CC1=O (centres unmarked) [Compound 2.1]
100 to 500 nM | CN1CCC(CCOC(=O)c2cc3ccc(CN)nc3n2Cc2cc(NS(=O)(=O)Cc3ccsc3)cc3c2CCCC3)CC1=O (centres unmarked) [Compound 2.2]
≤ 100 nM | CN1CCC(CCOC(=O)c2cc3ccc(CN)nc3n2Cc2cc(NS(=O)(=O)Cc3ccccc3)cc3ccccc23)CC1=O (centres unmarked) [Compound 2.3]
≤ 100 nM | CN1CCC(CCOC(=O)c2cc3ccc(CN)nc3n2Cc2cc(NS(=O)(=O)Cc3ccsc3)cc3ccccc23)CC1=O (centres unmarked) [Compound 2.4]
≤ 100 nM | CN1CC(CCOC(=O)c2cc3ccc(CN)nc3n2Cc2cc(NS(=O)(=O)Cc3ccsc3)cc3ccccc23)CC1=O (centres unmarked) [Compound 2.6]
≤ 100 nM | CN1CC(CCOC(=O)c2cc3ccc(CN)nc3n2Cc2cc(NS(=O)(=O)Cc3ccccc3)cc3ccccc23)CC1=O (centres unmarked) [Compound 2.7]
≤ 100 nM | CN(C)C(=O)CCCOC(=O)c1cc2ccc(CN)nc2n1Cc1cc(CS(=O)(=O)Cc2ccsc2)cc2ccccc12 [Compound 2.10]
≤ 100 nM | NCc1ccc2cc(C(=O)OCC3CCNC(=O)C3)n(Cc3cc(NS(=O)(=O)Cc4ccsc4)cc4c3CCCC4)c2n1 (centres unmarked) [Compound 2.11]
100 to 500 nM | CN1CCC(CCOC(=O)c2cc3ccc(CN)nc3n2Cc2cc(NS(=O)(=O)Cc3ccccc3)c3ccccc3c2)CC1 [Compound 2.12]
≤ 100 nM | NCc1ccc2cc(C(=O)OCC3CNC(=O)C3)n(Cc3cc(NS(=O)(=O)Cc4ccsc4)cc4ccccc34)c2n1 (centres unmarked) [Compound 2.13]
≤ 100 nM | CN1CCC(CCOC(=O)c2cc3ccc(CN)nc3n2Cc2cc(NS(=O)(=O)Cc3ccccc3)cc3c2CCCC3)CC1 [Compound 2.15]
100 to 500 nM | CN1CCC(COC(=O)c2cc3ccc(CN)nc3n2Cc2cc(NS(=O)(=O)Cc3ccccc3)c3ccccc3c2)CC1 [Compound 2.16]
≤ 100 nM | CN1CCC(COC(=O)c2cc3ccc(CN)nc3n2Cc2cc(NS(=O)(=O)Cc3ccsc3)cc3ccccc23)CCC1=O (centres unmarked) [Compound 2.17]
≤ 100 nM | CN1CCC(COC(=O)c2cc3ccc(CN)nc3n2Cc2cc(NS(=O)(=O)Cc3ccccc3)cc3ccccc23)CCC1=O (centres unmarked) [Compound 2.18]
≤ 100 nM | CN1CCC(COC(=O)c2cc3ccc(CN)nc3n2Cc2cc(NS(=O)(=O)Cc3ccccc3)cc3c2CCCC3)CC1=O (centres unmarked) [Compound 2.19]
≤ 100 nM | CN1CC(COC(=O)c2cc3ccc(CN)nc3n2Cc2cc(NS(=O)(=O)Cc3ccsc3)cc3ccccc23)CC1=O (centres unmarked) [Compound 2.20]
≤ 100 nM | CN1CC(COC(=O)c2cc3ccc(CN)nc3n2Cc2cc(NS(=O)(=O)Cc3ccccc3)cc3ccccc23)CC1=O (centres unmarked) [Compound 2.21]
≤ 100 nM | CN1CCC(COC(=O)c2cc3ccc(CN)nc3n2Cc2cc(NS(=O)(=O)Cc3ccsc3)cc3c2CCCC3)CC1=O (centres unmarked) [Compound 2.22]
≤ 100 nM | CN1CCC(CCCOC(=O)c2cc3ccc(CN)nc3n2Cc2cc(NS(=O)(=O)Cc3ccccc3)cc3ccccc23)CC1 [Compound 2.23]
≤ 100 nM | NCc1ccc2cc(C(=O)NCc3ccc(N)cc3)n(Cc3cc(NS(=O)(=O)Cc4ccccc4)cc4ccccc34)c2n1 [Compound 2.24]
